# Test system: H9P33, H9P44 and H9P48 cells
# Experiment: Microarray analysis of definitive endoderm on MEFs vs MATRIGEL +/- Wnt-3A (Table VI)
# Details: DE treatment in low serum
# Method: Controls for each group included cells plated on […]-coated dishes and cultured in MEF-conditioned medium or cells plated on MEFs and cultured in ES medium. All groups contained three biological replicates and each biological replicate was repeated on two separate gene chips.
# Sample preparation, hybridization, and image analysis were performed according to the Affymetrix Human Genome U133 Plus 2.0 Array. Following normalization and a log transformation, data analysis was performed using OmniViz® software (MA) and […] (VizXLabs, WA). Significant differences in gene expression between the samples were evaluated using analysis of variance and an F-test with adjusted P-value (Benjamini and Hochberg correction) of ≤0.05. Only genes with a present call in at least one group were included in the analysis.
substance,measurement,setting,value
Activin A: a member of the TGFβ superfamily; growth factor (R&D Systems) used to differentiate human embryonic stem cells,"mean normalized intensity (log format), Human (clone HSY3RR) neuropeptide Y receptor (NPYR) mRNA",on MATRIGEL,1.775
same,"mean normalized intensity (log format), Human DNA sequence from clone RP1-181C24 on chromosome 6p11.1-12.2 (3 end of the BMP5 gene)",on MATRIGEL,−3.723
same,"mean normalized intensity (log format), Human Fritz mRNA, complete cds",on MATRIGEL,0.4366
same,"mean normalized intensity (log format), Human dipeptidyl peptidase IV (CD26) mRNA",on MATRIGEL,−3.611
same,"mean normalized intensity (log format), Human glycophorin HeP2 mRNA, partial cds",on MATRIGEL,−0.8435
same,"mean normalized intensity (log format), Human link protein mRNA, complete cds",on MATRIGEL,−1.94
same,"mean normalized intensity (log format), Human mRNA for alpha-1 type II collagen",on MATRIGEL,−2.8736
same,"mean normalized intensity (log format), Human mRNA for apolipoprotein AI (apo AI)",on MATRIGEL,0.2151
same,"mean normalized intensity (log format), Human prostatic secretory protein 57 mRNA",on MATRIGEL,−3.013
same,"mean normalized intensity (log format), KIAA0878 protein",on MATRIGEL,1.1189
same,"mean normalized intensity (log format), KIAA1462 protein",on MATRIGEL,−3.846
same,"mean normalized intensity (log format), MCP-1 = monocyte chemotactic protein",on MATRIGEL,−2.276
same,"mean normalized intensity (log format), Rho GDP dissociation inhibitor (GDI) alpha",on MATRIGEL,−1.544
same,"mean normalized intensity (log format), WAS protein family, member 2",on MATRIGEL,−2.187
same,"mean normalized intensity (log format), collagen, type IX, alpha 2",on MATRIGEL,1.27
same,"mean normalized intensity (log format), collagen, type VI, alpha 1",on MATRIGEL,−1.418
same,"mean normalized intensity (log format), glycophorin B (includes Ss blood group)",on MATRIGEL,−2.852
same,"mean normalized intensity (log format), hepatocyte nuclear factor 4, alpha",on MATRIGEL,−4.266
same,"mean normalized intensity (log format), homeo box HB9",on MATRIGEL,−1.656
same,"mean normalized intensity (log format), hypothetical protein FLJ21032",on MATRIGEL,0.3557
same,"mean normalized intensity (log format), hypothetical protein FLJ23091",on MATRIGEL,0.3234
same,"mean normalized intensity (log format), hypothetical protein FLJ23403",on MATRIGEL,−1.456
same,"mean normalized intensity (log format), matrix metalloproteinase 14 (membrane-inserted)",on MATRIGEL,−2.057
same,"mean normalized intensity (log format), microfibrillar-associated protein 4",on MATRIGEL,0.06379
same,"mean normalized intensity (log format), myristoylated alanine-rich protein kinase C substrate (MARCKS, 80K-L)",on MATRIGEL,−0.7172
same,"mean normalized intensity (log format), neuropilin 1",on MATRIGEL,−1.623
same,"mean normalized intensity (log format), noggin",on MATRIGEL,−1.636
same,"mean normalized intensity (log format), phorbolin-like protein MDS019",on MATRIGEL,−1.118
same,"mean normalized intensity (log format), solute carrier family 16 (monocarboxylic acid transporters), member 3",on MATRIGEL,−0.06641
same,"mean normalized intensity (log format), splicing factor, arginineserine-rich 5",on MATRIGEL,0.7481
same,"mean normalized intensity (log format), stanniocalcin 1",on MATRIGEL,2.411
same,"mean normalized intensity (log format), 6-phosphofructo-2-kinasefructose-2,6-biphosphatase 4",on MEFS,1.6
same,"mean normalized intensity (log format), Cluster Incl. AB028021: Homo sapiens HNF-3beta mRNA for hepatocyte nuclear factor-3 beta",on MEFS,4.117
same,"mean normalized intensity (log format), ESTs, Highly similar to IHH_HUMAN INDIAN HEDGEHOG PROTEIN PRECURSOR (H. sapiens)",on MEFS,0.5905
same,"mean normalized intensity (log format), ESTs, Moderately similar to JE0284 Mm-1 cell derived transplantability-associated protein 1b (H. sapiens)",on MEFS,4.222
same,"mean normalized intensity (log format), ESTs, Weakly similar to FCE2 MOUSE LOW AFFINITY IMMUNOGLOBULIN EPSILON FC RECEPTOR (M. musculus)",on MEFS,3.48
same,"mean normalized intensity (log format), ESTs, Weakly similar to the 331st table hypothetical protein KIAA0555 (H. sapiens)",on MEFS,0.4436
same,"mean normalized intensity (log format), G protein-coupled receptor",on MEFS,5.053
same,"mean normalized intensity (log format), G protein-coupled receptor 49",on MEFS,2.505
same,"mean normalized intensity (log format), Homo sapiens HNF-3beta mRNA for hepatocyte nuclear factor-3 beta",on MEFS,2.825
same,"mean normalized intensity (log format), Homo sapiens KIAA0878 protein (KIAA0878), mRNA",on MEFS,5.654
same,"mean normalized intensity (log format), Homo sapiens Kell blood group (KEL), mRNA",on MEFS,−0.3839
same,"mean normalized intensity (log format), Homo sapiens MLL septin-like fusion (MSF), mRNA",on MEFS,−1.5
same,"mean normalized intensity (log format), Homo sapiens Mix-like homeobox protein 1 (MILD1) mRNA",on MEFS,0.922
same,"mean normalized intensity (log format), Homo sapiens Rho GTPase activating protein 6 (ARHGAP6), transcript variant 2, mRNA",on MEFS,−1.285
same,"mean normalized intensity (log format), Homo sapiens TBX3-iso protein (TBX3-iso), mRNA",on MEFS,1.07
same,"mean normalized intensity (log format), Homo sapiens angiopoietin 2 (ANGPT2), mRNA",on MEFS,0.5968
same,"mean normalized intensity (log format), Homo sapiens ankyrin-like with transmembrane domains 1 (ANKTM1), mRNA",on MEFS,2.819
same,"mean normalized intensity (log format), Homo sapiens apolipoprotein A-I (APOA1), mRNA",on MEFS,2.469
same,"mean normalized intensity (log format), Homo sapiens apolipoprotein A-II (APOA2), mRNA",on MEFS,4.469
same,"mean normalized intensity (log format), Homo sapiens arylsulfatase E (chondrodysplasia punctata 1) (ARSE), mRNA",on MEFS,3.184
same,"mean normalized intensity (log format), Homo sapiens atrophin-1 interacting protein 1; activin receptor interacting protein 1 (KIAA0705), mRNA",on MEFS,−1.32
same,"mean normalized intensity (log format), Homo sapiens beta-site APP cleaving enzyme (BACE) mRNA",on MEFS,1.754
same,"mean normalized intensity (log format), Homo sapiens cDNA FLJ11550 fis, clone HEMBA1002970",on MEFS,4.216
same,"mean normalized intensity (log format), Homo sapiens cDNA FLJ12993 fis, clone NT2RP3000197",on MEFS,2.069
same,"mean normalized intensity (log format), Homo sapiens cDNA FLJ13221 fis, clone NT2RP4002075",on MEFS,1.31
same,"mean normalized intensity (log format), Homo sapiens cardiac ventricular troponin C mRNA",on MEFS,1.4377
same,"mean normalized intensity (log format), Homo sapiens cartilage linking protein 1 (CRTL1), mRNA",on MEFS,−0.8052
same,"mean normalized intensity (log format), Homo sapiens cell adhesion molecule with homology to L1CAM (close homologue of L1) (CHL1), mRNA",on MEFS,−2.5002
same,"mean normalized intensity (log format), Homo sapiens chromosome 19, cosmid R31181",on MEFS,0.2239
same,"mean normalized intensity (log format), Homo sapiens clone 23736 mRNA sequence",on MEFS,4.507
same,"mean normalized intensity (log format), Homo sapiens cryptic mRNA, complete cds",on MEFS,−0.6735
same,"mean normalized intensity (log format), Homo sapiens cystatin SA (CST2), mRNA",on MEFS,2.1671
same,"mean normalized intensity (log format), Homo sapiens cystatin SN (CST1), mRNA",on MEFS,4.64
same,"mean normalized intensity (log format), Homo sapiens cytidine deaminase (CDA), mRNA",on MEFS,−1.67
same,"mean normalized intensity (log format), Homo sapiens dual specificity phosphatase 4 (DUSP4), mRNA",on MEFS,4.122
same,"mean normalized intensity (log format), Homo sapiens fibroblast growth factor 8 (androgen-induced) (FGF8), mRNA",on MEFS,0.01583
same,"mean normalized intensity (log format), Homo sapiens fibroblast growth factor 17 (FGF17), mRNA",on MEFS,2.4872
same,"mean normalized intensity (log format), Homo sapiens frizzled-related protein (FRZB), mRNA",on MEFS,3.676
same,"mean normalized intensity (log format), Homo sapiens gastrin-releasing peptide (GRP), mRNA",on MEFS,0.5098
same,"mean normalized intensity (log format), Homo sapiens glycophorin B (includes Ss blood group) (GYPB), mRNA",on MEFS,0.1803
same,"mean normalized intensity (log format), Homo sapiens glycophorin E (GYPE), mRNA",on MEFS,−1.501

# Source: patent US11708562B2, “Differentiation of human embryonic stem cells” (Janssen Biotech, Inc., priority 2006, dated 2023)
